# “Also recorded” adds a separate entry of the source.
# Tests used:
# [1] = In vivo PK, plasma and brain levels; conditions: male, C57BL/6, mouse
# From the text: A plasma calibration curve was generated. […] Subcutaneous compound administration was accomplished by […]. Per oral administration was accomplished by gastric gavage. Intravenous administration was accomplished via jugular catheter. […] A brain calibration curve was generated.
# [2] = molecular target: T1, sigma 2 (agonist radioligand) (Rattus norvegicus, UniProt Q5U3Y7); test: Receptor binding assay, displacement of known radioligand; conditions: read-out: % Inhibition of Control
# T1 sequence (Q5U3Y7 1-176): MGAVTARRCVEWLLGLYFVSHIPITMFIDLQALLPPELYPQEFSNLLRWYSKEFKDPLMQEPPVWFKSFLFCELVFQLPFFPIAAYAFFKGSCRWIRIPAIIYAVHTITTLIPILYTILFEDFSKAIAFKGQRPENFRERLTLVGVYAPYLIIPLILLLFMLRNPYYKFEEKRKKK
# [3] = tested on: caspase-3 activity in SKOV-3 human ovarian cancer cells; test: Caspase-3 activity assay in tumor cells; assay type: cell-based
# [4] = tested on: Abeta oligomer-induced membrane trafficking deficits; test: Membrane trafficking/exocytosis (MTT) assay in mature primary hippocampal neurons; assay type: cell-based, rat; conditions: for Membrane trafficking when dosed in the absence of Abeta: compound alone
# Procedure: The present exocytosis assay was adapted for use with mature primary neuronal cultures grown for 3 weeks in vitro.
# The methods used to generate the results were as follows in the Membrane Trafficking/Exocytosis (MTT) assay.
# Primary hippocampal neurons from E18 Sprague-Dawley rat embryos were plated at optimized concentrations in 384 well plates in NB media (Invitrogen). Neurons were maintained in cultures for 3 weeks, with twice weekly feeding of NB media with N2 supplement (Invitrogen).
# […] MTT reagent (3-(4,5-dimethylthizaol-2yl)-2,5diphenyl tetrazolium bromide) (Roche Molecular Biochemicals) was reconstituted in phosphate buffered saline to 5 mg/mL. 10 μL of MTT labeling reagent is added to each well and incubated at 37° C. for 1 h, then imaged. Exocytosis was assessed by automated microscopy and image processing to quantify the amount of endocytosed and exocytosed formazan.
# Each assay plate was formatted so that compounds are tested with and without Abeta oligomer on each plate.
# [5] = tested on: Abeta oligomer-induced memory deficits in wt C57BL/6 mice; test: Contextual fear conditioning after intrahippocampal Abeta oligomer injection; assay type: in vivo, mouse
# Procedure: Abeta oligomers (single 200 nanoMolar intrahippocampal injection) produced significant deficits in memory formation in 3-4 month old male wt C57BL/6 mice (N=16) compared to vehicle (N=18).
# Several pharmaceutical companies use this same model in their discovery efforts. Contextual fear conditioning is an accepted model of associative memory formation which correlates to human cognitive function and specifically the creation of new (Delgado '06). Abeta oligomers are injected into the hippocampus of wild-type animals immediately before conditioning training and memory is assessed via freezing behavior after 24 hours. Details are provided in Example 9. […] This model system was chosen because intrahippocampal administration of oligomers allows rapid comparative assessment of compound activity and off-target toxicity. The results are shown graphically in FIG. 4.
# Compound II was tested in an animal model of a memory-dependent behavioral task known as fear conditioning. The study protocol was designed based on published protocols (See e.g. Puzzo D, Privitera L, Leznik E, Fà M, Staniszewski A, Palmeri A, Arancio O. Picomolar amyloid-beta positively modulates synaptic plasticity and memory in hippocampus. J. Neurosci. 2008 Dec. 31; 28(53):14537-45.). The formation of contextual memories is dependent upon the integrity of medial temporal lobe structures such as the hippocampus. […]
# [6] = tested on: neurons and glia in culture; test: In vitro neuronal and glial toxicity, acute or chronic dosing; assay type: cell-based; conditions: up to 50 μM, three days
# [7] = tested on: sigma-2 receptor; test: Autoradiography, displacement of [3H]-RHM-1 in brain sections; assay type: binding; conditions: 1 μM; monkey frontal cortex, monkey hippocampus, human temporal cortex
# Procedure: Brain sections in 20 μM thickness from rats, rhesus monkeys and postmortem human brains were cut using with a Microm cryotome and mounted on superfrost plus glass slides (Fisher Scientific, Pittsburgh, Pa.)., and serial sections through the brain regions of cerebral cortex and hippocampus were used in this study.
# Slides were dried and made conductive by coating with a copper foil tape on the free side and then placed in the gas chamber [mixture of argon and triethylamine (Sigma-Aldrich, USA)] of a gaseous detector, the Beta Imager 2000Z Digital Beta Imaging System (Biospace, France). […] [^3H]Microscale (American Radiolabeled Chemicals, Inc., St. Louis, Mo.) was counted at the same time as a reference for total radioactivity quantitative analysis, i.e., to convert the cpm/mm2 to nCi/mg tissue. Quantitative analysis was performed with the program Beta-Image Plus (BioSpace, France) for the anatomical regions of interest (ROI), i.e., to obtain the quantitative radioactivity uptake (cpm/nlln2) in the regions of cortex and hippocampus. The binding density was normalized to fmol/mg tissue based on the specific activities of the corresponding radioligands and calibration curve from the standard [^3H]Microscale.
smiles,measurement,setting,value
COc1cc(CCC(C)NCc2ccc(C(F)(F)F)cc2)ccc1O (stereo not shown) [Compound II],Brain concentration as multiple of the efficacious brain dose in vivo,"[1]; iv, 10 mg/kg, 180 min",57 ×
same,Amount in the brain as multiple of the efficacious dose,"[1]; po, 3 h",~40 ×
same,inhibition at 10 µM,[2],89%
same,Block of caspase-3 activation caused by sigma-2 receptor agonist SV-119,[3],do not block caspase-3 activation
same,Induction of caspase-3 activity,[3],did not induce caspase-3 activity
same,Membrane trafficking deficits induced by AD brain-derived Abeta oligomers,"[4]; 137 pM oligomers, Compound II 15 uM",eliminates the membrane trafficking deficits; also recorded: completely eliminated
same,Abeta oligomer-induced membrane traffic changes,[4]; 15 micromolar Compound II,blocked
same,Assay effects in the absence of Aβ,"[4]; Table 10A, trafficking or synapse number without Abeta oligomer",No
same,Functional Neuronal Phenotype,[4]; Table 10B,Antagonist
same,Conc at Max Inhib. of Abeta,"[4]; Table 11, figure in brackets",10
same,Membrane trafficking when dosed in the absence of Abeta,[4],does not affect trafficking
same,Membrane trafficking when dosed in the absence of Abeta,[4]; listed as CT0109,no significant effect
same,Memory performance when dosed alone,[5]; no Abeta oligomer,no effect of compounds alone
same,Abeta oligomer-induced memory deficits (freezing behavior 24 hours post-training),"[5]; single intrahippocampal injection one hour prior to oligomers (2 microMolar, b68; 2 pmol dose)",completely blocked oligomer-mediated memory deficits; also recorded: eliminated memory deficits
same,"Toxicity (neuron number, glial number, nuclear size, nuclear morphology, neurite length, cytoskeletal morphology)",[6],no toxicity
same,Displacement of 18.4 nM [3H]-RHM-1,[7],partially displace
